Test results taken from patent publication US20240226086A1, “LIQUID PHARMACEUTICAL FORMULATIONS OF QUINOLINES” (TaP Pharmaceuticals, AG, priority 2022, published 2024).
Where a name gives a salt, the structure may show the parent alone. Read-outs that look alike come from different tables or passages of the source.

What was measured:
[1] = HCQ sulfate solubility in liquid glycerol formulations, HPLC assay for HCQ; assay type: physicochemical; settings: dissolution protocol of Example 1
Experimental: Liquid HCQ formulations. […] Step 1: 63 g of glycerol were weighed and transferred into a 50 ml beaker with magnetic stir bar and heated to 70° C. while stirred. Step 2: 10 g HCQ sulfate were weighed and slowly added to the 70° C. glycerol of Step 1 with continued stirring and with maintenance of 70° C. until a clear liquid solution was formed. Step 3: 10 g HCQ sulfate was weighed and slowly added to resultant clear liquid solution of Step 3 with continued stirring and with maintenance of 70° C. until a clear liquid solution was formed. Step 4: the resultant clear liquid solution of Step 4 was cooled to room temperature.
HPLC steps. Step 1. […] The chromatogram was recorded and used to identify any peak eluting at the retention time of major peaks. […] The chromatogram was recorded and used to identify the HCQ peak and calculate its signal to noise ratio. […] The chromatogram was recorded and used to identify HCQ and HCQ-n-oxide peaks and the resolution between those peaks was calculated. […] The chromatograms were recorded and used to calculate the average and % RSD for the HCQ peak area responses obtained from the six replicate injections of standard solution. The tailing factor was determined. […] The chromatograms were recorded and used to calculate average peak area responses of the HCQ obtained from the two replicate injections of standard check solution. The similarity factor was calculated. […]

[2] = cited from earlier work

In the case of `CCN(CCO)CCCC(C)Nc1ccnc2cc(Cl)ccc12` (centres unmarked) [HCQ, 2-[[4-[(7-Chloro-4-quinolyl)amino]pentyl]ethylamino] ethanol sulfate (1:1)], the “HCQ dissolved in glycerol” value [1] is given as 273 mg/mL, the “Solubility, Inference as USP” value ([2]; solvent Alcohol) is given as “Practically insoluble or slightly soluble” and the “Solubility, Inference as USP” value ([2]; solvent Chloroform) is given as “Practically insoluble or slightly soluble”. The “Solubility, Inference as USP” value ([2]; solvent Dimethylformamide) was “Sparingly soluble (10-33)”, the “Solubility, Inference as USP” value ([2]; solvent Dimethylsulfoxide) was “Insoluble or sparingly soluble” and the “Solubility, Inference as USP” value ([2]; solvent Ethanol) was “Sparingly soluble or insoluble”. The “Solubility, Inference as USP” value ([2]; solvent Ether) was “Practically insoluble or very slightly soluble” and the “Solubility, Inference as USP” value ([2]; solvent Glycerol) was “Very slightly soluble (0.1-1)”.
